This note sets out measurements from patent US6069128A, “Transiently membrane-permeable derivatives converted intracellularly into active peptides” (Universite Laval, priority 1998, dated 2000).

Where no end group is shown, it is not given here.

This experiment has as its system IL-8-induced leukocyte migration. The experiment in a line: IL-8-induced leukocyte migration into the mouse air pouch. It counts as in vivo. To be noted: BALBc mice; 100 μg peptide intravenously in the tail one hour before subdermal IL-8 (1 μg); leukocytes collected two and a half hours after IL-8. As to the method: In the second series of experiments, inhibition of leukocyte migration in BALBc mice was chosen as an in vivo assay as a first step towards the use of the modified peptides in humans. 100 ug of the DRYLAIVHAT/AM peptide, diluted in cyclodextrane or polythelene glycol, was injected intravenously in the tails of BALBc mice one hour prior to the subdermal injection of IL-8. In the presence of the modified peptide, leukocyte migration was inhibited when compared to the migration observed in untreated animals (FIG. 4).
In FIG. 4, the peak increase in leukocyte migration induced by IL-8 is shown. The peptides (100 μg) (native or transformed) were injected intravenously in the tails of the BALBC mice one hour prior to IL-8 injection. The basal cell number was 0.25×10^6 cells and the increases represent the differences between the basal and the peak levels of the leukocytes collected two and a half hours after IL-8 stimulation. The data represent the mean ±SEM of the number of experiments indicated in parenthesis.

As to “DRYLAIVHAT/AM: acetoxymethyl ester (AM) membrane-permeable derivative of the peptide from the second intracellular loop of the interleukin 8 type A receptor (also: acetoxymethyl ester (AM) derivative)”, the “inhibition of leukocyte migration induced by IL-8” value was “inhibited”.
